Reference: publication doi:10.1101/2023.10.19.563029v1 (bioRxiv, 2023)
One block for each compound: values may come before it. Where no end group is shown, it is not given here.

Experiments:
intact GLP-1 = type: in vivo, male C57Bl/6JRj mice
blood glucose = assay: Blood glucose during OGTT with in vivo enzyme inhibition; parameters: species or system male C57Bl/6JRj mice; conditions: valine pyrrolidide only, mean [95% CI], p=0.0023
[1] = In vivo disappearance of GLP-1; parameters: species or system male C57Bl6/JRj mice; conditions: 800 fmol i.v. tail vein; sitagliptin 10 mg/kg oral 30 min before; Alpco kit; n=5
[2] = In vivo disappearance of GLP-1; parameters: species or system male C57Bl6/JRj mice; conditions: 800 fmol into vena cava, n=4
[3] = estimated, after secretion; ref [2]; cited from earlier work
[4] = in humans; background statement, no reference given; cited from earlier work

Compound: N[C@@H](CC(=O)N1CCn2c(nnc2C(F)(F)F)C1)Cc1cc(F)c(F)cc1F [sitagliptin, Sitagliptin]
intact GLP-1 level after the OGTT, at 5 minutes (intact GLP-1; oral sitagliptin 10 mg/kg 30 min before OGTT, Alpco kit, mean ± SD, n=6, SD): 10.9 ± 3.9 pmol/L

Compound: CCOC(=O)[C@H](C)C[C@@H](Cc1ccc(-c2ccccc2)cc1)NC(=O)CCC(=O)O [sacubitril]
difference in AUC of intact GLP-1 versus control (intact GLP-1; sacubitril alone, oral 0.3 mg/kg, 30 min before OGTT, mean [95% CI], p>0.99, n=6): 4.0 pmol/L/min

Compound: CC(C)[C@H](N)C(=O)N1CCCC1 [valine pyrrolidide]
intact GLP-1 level after the OGTT (intact GLP-1; i.p. valine pyrrolidide 15 mg/kg 30 min before OGTT, Alpco kit, mean ± SD, n=5, SD): 5.1 ± 0.9 pmol/L | intact GLP-1 level after the OGTT, at 10 minutes (intact GLP-1; oral valine pyrrolidide 20.6 mg/kg 30 min before OGTT, Alpco kit, mean ± SD, n=5, SD): 9.2 ± 6.3 pmol/L | suppression in the rise of glucose at 20 minutes (difference versus control) (blood glucose): -6.2 mmol/L

calculated half-life, sitagliptin [1]: 1.53 min | initial peak plasma value, sitagliptin only ([2]; sitagliptin 30 min before): ~50 pmol/L
Compound: CC[C@H](C)[C@H](NC(=O)[C@H](Cc1ccccc1)NC(=O)[C@H](CCC(=O)O)NC(=O)[C@H](CCCCN)NC(=O)[C@H](C)NC(=O)[C@H](C)NC(=O)[C@H](CCC(N)=O)NC(=O)CNC(=O)[C@H](CCC(=O)O)NC(=O)[C@H](CC(C)C)NC(=O)[C@H](Cc1ccc(O)cc1)NC(=O)[C@H](CO)NC(=O)[C@H](CO)NC(=O)[C@@H](NC(=O)[C@H](CC(=O)O)NC(=O)[C@H](CO)NC(=O)[C@@H](NC(=O)[C@H](Cc1ccccc1)NC(=O)[C@@H](NC(=O)CNC(=O)[C@H](CCC(=O)O)NC(=O)[C@H](C)NC(=O)[C@@H](N)Cc1c[nH]cn1)[C@@H](C)O)[C@@H](C)O)C(C)C)C(=O)N[C@@H](C)C(=O)N[C@@H](Cc1c[nH]c2ccccc12)C(=O)N[C@@H](CC(C)C)C(=O)N[C@H](C(=O)N[C@@H](CCCCN)C(=O)NCC(=O)N[C@@H](CCCNC(=N)N)C(N)=O)C(C)C [GLP-1(7–36)NH2]
half-life, control ([2]; isoflurane-sedated mice, no inhibitors): 0.79 min | half-life, sitagliptin ([2]; isoflurane-sedated mice, sitagliptin 30 min before): 1.35 min | share of intact GLP-1 that reaches the systemic circulation [3]: 7-8%

Compound: GLP-1(9–36)NH2 (EGTFTSDVSSYLEGQAAKEFIAWLVKGR-NH2; UniProt P01275 100-127, looked up, fragment)
plasma half-life [4]: about 5 min
